Measurements from publication PMC10600239, “Selective MCL-1 inhibitor ABBV-467 is efficacious in tumor models but is associated with cardiac troponin increases in patients” (Communications Medicine, 2023).
Several values for one entry are separate records, joined by “and”; a condition that tells them apart may be missing. Equal values may be shown once.

Tested on: AMO-1 xenografts
Experiment: AMO-1 xenograft efficacy (tumor volume, body weight); on Mortality Observation Day 34: key: EUTV: Euthanized: tumor volume; on Mortality Observation Day 36: key: EUTV: Euthanized: tumor volume; on Mortality Observation Day 68, individual animal: key: EUTV: Euthanized: tumor volume
Type: in vivo, mouse
Method: All animal studies were conducted in accordance with the guidelines approved by the Institutional Animal Care and Use Committees of AbbVie. The research protocol was approved by In Vivo Pharmacology at AbbVie prior to study initiation but was not publicly registered or disclosed. Female C.B-17 SCID-beige mice (AMO-1, OPM-2, NCI-H929, and OCI-AML2 xenografts) and female NSG mice (MV4-11-Red.Fluc systemic) were purchased from Charles River Laboratories (Wilmington, MA). Animals were housed in a light cycle-controlled room with HEPA filtration at 22 °C. Animals had nesting and climbing cage topper as the primary environmental enrichment. Animals were inoculated subcutaneously in the right flank with 5 × 10^6 (AMO-1, OPM-2, NCI-H929, and OCI-AML2) or intravenous (IV) with 5 × 10^6 (MV4-11-Red.Fluc). The inoculation volume (0.2 mL) comprised a 50:50 mixture of cells in growth media and Matrigel (BD Biosciences) for subcutaneous injections and 100% phosphate-buffered saline for IV administration. All cell lines used in this publication were authenticated using IDEXX for STR profiling as well as their IMPACT and human IMPACT panels for pathogen screening. Electronic calipers were used to measure the length and width of each tumor 2 to 3 times per week. Tumor volume was estimated by applying the following equation: volume = length × width^2/2. All groups remained blinded during measurements and dosing; only veterinary staff were aware of group identity. When tumors reached approximately 200 mm^3, mice were randomized by match and distributed into treatment and control groups. All xenograft trials were conducted using 5 to 10 mice per group, and all mice were ear tagged and monitored individually throughout the studies. […] Tumor burden in the systemic MV4-11-Red.Fluc experiment was measured using an IVIS® spectrum from PerkinElmer by taking the total photon flux of the entire dorsal side of an individual mouse. […] A background control mouse that was tumor naive but received D-Luciferin was placed in the upper left corner of each image. The total flux from this animal was subtracted from the total flux of each animal present in the image.
For in vivo studies, maximal tumor growth inhibition (TGI) was calculated as the greatest treatment response using the following equation: Maximal TGI = (1 − mean tumor volume of the treated group/mean tumor volume of the vehicle control group) × 100. The tumor growth delay (TGD) percentage was determined as the percentage increase of the median time period for the treatment group to reach an arbitrary tumor volume of 1000 mm^3 relative to the vehicle control group. […] A power analysis was conducted using historical data to determine the number of animals required to yield significance of 0.05 at a 30% difference. […] Data from experiments in vivo were analyzed using the student’s t-test for TGI values and the Mann–Whitney U test for TGD using Excel and GraphPad Prism. Fisher’s exact test was used to probe significance of differences in response frequency.

[1] = 25 mg/kg Q7Dx2 IV, Day 53, SCID-beige female mice
[2] = 25 mg/kg Q7Dx2 IV, Day 60, SCID-beige female mice
[3] = 25 mg/kg Q7Dx2 IV, SCID-beige female mice, Day 21
[4] = 25 mg/kg Q7Dx2 IV, SCID-beige female mice, Day 24
[5] = 25 mg/kg Q7Dx2 IV, SCID-beige female mice, Day 26
[6] = 25 mg/kg Q7Dx2 IV, SCID-beige female mice, Day 28
[7] = 25 mg/kg Q7Dx2 IV, SCID-beige female mice, Day 34, surviving animals
[8] = 25 mg/kg Q7Dx2 IV, SCID-beige female mice, Day 43
[9] = 25 mg/kg Q7Dx2 IV, SCID-beige female mice, Day 50
[10] = 25 mg/kg Q7Dx2 IV, SCID-beige female mice, Day 55, remaining animals
[11] = 25 mg/kg Q7Dx2 IV, SCID-beige female mice, Day 62
[12] = 25 mg/kg Q7Dx2 IV, SCID-beige female mice, Day 64
[13] = 25 mg/kg Q7Dx2 IV, SCID-beige female mice, Day 68
[14] = 25 mg/kg Q7Dx2 IV, SCID-beige female mice, Day 68, surviving animals
[15] = 25 mg/kg Q7Dx2 IV, SCID-beige mice, Day 13 (measure date 10/25/2017, dosing begin 10/26/2017)

Structure (SMILES): Cc1c(Cl)c2c(Cl)c(C)c1-c1c(-c3ccc(F)cc3)sc3ncnc(c13)O[C@@H](C(=O)O)Cc1cc(ccc1OCc1ccnc(-c3ccc(OC[C@H]4COCCO4)cc3)n1)OC[C@@H](CN1CCN(C)CC1)O2 [Compound A-1747745.0]
- Xenograft AMO-1 (DSMZ) (mm³) Day 34 Mean (6.25 mg/kg QDx1 IV, Day 34, group mean): 1592.98 mm³
- Xenograft AMO-1 (DSMZ) (mm³) Day 34 Median (6.25 mg/kg QDx1 IV, Day 34, group median): 1465.20 mm³
- Mortality Observation Day 34 (6.25 mg/kg QDx1 IV, Day 34, per animal): EUTV
- Xenograft AMO-1 (DSMZ) (mm³) Day 36 (individual animals) (6.25 mg/kg QDx1 IV, Day 36, SCID-beige female mice, tumor volume per animal (remaining animals)): 1617 mm³ and 1642 mm³ and 1750 mm³ and 2010 mm³
- Xenograft AMO-1 (DSMZ) (mm³) Day 36, Mean (6.25 mg/kg QDx1 IV, Day 36, group mean of remaining animals): 1754.60 mm³
- Xenograft AMO-1 (DSMZ) (mm³) Day 36, Median (6.25 mg/kg QDx1 IV, Day 36, group median of remaining animals): 1695.89 mm³
- Mortality Observation Day 36 (6.25 mg/kg QDx1 IV, Day 36, per animal): EUTV
- Mortality Observation Day 19 (25 mg/kg Q7Dx2 IV, AMO-1 xenograft, SCID-beige female mice, individual animals): MORB
- % T/C (mean) (25 mg/kg Q7Dx2 IV, Day 13): 102.38%
- % T/C (median) (25 mg/kg Q7Dx2 IV, Day 13): 100.76%
- % T/C (mean) (25 mg/kg Q7Dx2 IV, Day 19): 6.47%
- % T/C (median) (25 mg/kg Q7Dx2 IV, Day 19): 6.98%
- % T/C (mean) (25 mg/kg Q7Dx2 IV, Day 21): 4.61%
- % T/C (median) (25 mg/kg Q7Dx2 IV, Day 21): 4.91%
- % T/C (mean) (25 mg/kg Q7Dx2 IV, Day 24): 1.88%
- % T/C (median) (25 mg/kg Q7Dx2 IV, Day 24): 1.98%
- % T/C (mean) (25 mg/kg Q7Dx2 IV, Day 26): 1.29%
- % T/C (median) (25 mg/kg Q7Dx2 IV, Day 26): 1.46%
- % T/C (mean) (25 mg/kg Q7Dx2 IV, Day 28): 0.52%
- % T/C (median) (25 mg/kg Q7Dx2 IV, Day 28): 0.52%
- Xenograft AMO-1 (DSMZ) (mm³) Day 53 (individual animals) [1]: 15 mm³
- Xenograft AMO-1 (DSMZ) (mm³) Day 53 Mean [1]: 15.19 mm³
- Xenograft AMO-1 (DSMZ) (mm³) Day 53 Median [1]: 15.19 mm³
- Xenograft AMO-1 (DSMZ) (mm³) Day 60 (individual animals) [2]: 155 mm³ and 71 mm³
- Xenograft AMO-1 (DSMZ) (mm³) Day 60, Mean [2]: 112.89 mm³
- Xenograft AMO-1 (DSMZ) (mm³) Day 60, Median [2]: 112.89 mm³
- Xenograft AMO-1 (DSMZ) Day 19 Mean (25 mg/kg Q7Dx2 IV, SCID-beige female mice, Day 19, group mean tumor volume): 25.56 mm³
- Xenograft AMO-1 (DSMZ) Day 19 Median (25 mg/kg Q7Dx2 IV, SCID-beige female mice, Day 19, group median tumor volume): 25.56 mm³
- Xenograft AMO-1 (DSMZ) (mm³) Day 19, individual animals (25 mg/kg Q7Dx2 IV, SCID-beige female mice, Day 19, individual tumor volumes): 18 mm³ and 33 mm³ and MORB
- Mortality Observation Day 21, individual animals [3]: STOX (2×) and MORB (2×)
- Xenograft AMO-1 (DSMZ) Day 21, Mean [3]: 29.76 mm³
- Xenograft AMO-1 (DSMZ) Day 21, Median [3]: 29.76 mm³
- Xenograft AMO-1 (DSMZ) tumor volume Day 21, individual animals [3]: 19 mm³ and 40 mm³
- Xenograft AMO-1 (DSMZ) (mm³) Day 24, individual animals [4]: 17 mm³ and 19 mm³
- Xenograft AMO-1 (DSMZ) tumor volume Day 24, Mean [4]: 17.90 mm³
- Xenograft AMO-1 (DSMZ) tumor volume Day 24, Median [4]: 17.90 mm³
- Xenograft AMO-1 (DSMZ) tumor volume Day 26, Mean [5]: 17.97 mm³
- Xenograft AMO-1 (DSMZ) tumor volume Day 26, Median [5]: 17.97 mm³
- Xenograft AMO-1 (DSMZ) tumor volume Day 26, individual animals [5]: 18 mm³
- Xenograft AMO-1 (DSMZ) (mm³) Day 28, individual animals [6]: 11 mm³
- Xenograft AMO-1 (DSMZ) Day 28 Mean [6]: 11.33 mm³
- Xenograft AMO-1 (DSMZ) Day 28 Median [6]: 11.33 mm³
- Xenograft AMO-1 (DSMZ) (mm³) Day 34, individual animal tumor volume (25 mg/kg Q7Dx2 IV, SCID-beige female mice, Day 34): 21 mm³ and 19 mm³
- Xenograft AMO-1 (DSMZ) (mm³) Day 34 Mean [7]: 20.16 mm³
- Xenograft AMO-1 (DSMZ) (mm³) Day 34 Median [7]: 20.16 mm³
- Xenograft AMO-1 (DSMZ) (mm³) Day 43, Mean [8]: 15.04 mm³
- Xenograft AMO-1 (DSMZ) (mm³) Day 43, Median [8]: 15.04 mm³
- Xenograft AMO-1 (DSMZ) (mm³) Day 43, individual animal tumor volume [8]: 15 mm³
- Xenograft AMO-1 (DSMZ) tumor volume Day 50, Mean [9]: 15.94 mm³
- Xenograft AMO-1 (DSMZ) tumor volume Day 50, Median [9]: 15.94 mm³
- Xenograft AMO-1 (DSMZ) tumor volume Day 50, individual animals [9]: 15 mm³ and 17 mm³
- Xenograft AMO-1 (DSMZ) tumor volume Day 55, individual animals (25 mg/kg Q7Dx2 IV, SCID-beige female mice, Day 55): 13 mm³ and 9 mm³
- Xenograft AMO-1 (DSMZ) tumor volume Day 55, Mean [10]: 10.76 mm³
- Xenograft AMO-1 (DSMZ) tumor volume Day 55, Median [10]: 10.76 mm³
- Xenograft AMO-1 (DSMZ) (mm³) Day 62 (individual animals) [11]: 198 mm³ and 12 mm³
- Xenograft AMO-1 (DSMZ) (mm³) Day 62, Mean [11]: 104.96 mm³
- Xenograft AMO-1 (DSMZ) (mm³) Day 62, Median [11]: 104.96 mm³
- Xenograft AMO-1 (DSMZ) (mm³) Day 64 (individual animals) [12]: 249 mm³ and 21 mm³
- Xenograft AMO-1 (DSMZ) (mm³) Day 64, Mean [12]: 134.75 mm³
- Xenograft AMO-1 (DSMZ) (mm³) Day 64, Median [12]: 134.75 mm³
- Mortality Observation Day 68, individual animal [13]: EUTV
- Xenograft AMO-1 (DSMZ) (mm³) Day 68, individual animal tumor volume [13]: 1794 mm³ and 24 mm³
- Xenograft AMO-1 (DSMZ) (mm³) Day 68, Mean [14]: 908.91 mm³
- Xenograft AMO-1 (DSMZ) (mm³) Day 68, Median [14]: 908.91 mm³
- Xenograft AMO-1 (DSMZ) tumor volume Day 13, Mean [15]: 225.47 mm³
- Xenograft AMO-1 (DSMZ) tumor volume Day 13, Median [15]: 225.47 mm³
- Xenograft AMO-1 (DSMZ) tumor volume Day 13, individual animals [15]: 233 mm³ and 218 mm³
- Xenograft AMO-1 (DSMZ) (mm³) Day 40, Mean (25 mg/kg Q7Dx2 IV, SCID-beige mice, Day 40, group mean of remaining animals): 7.70 mm³
- Xenograft AMO-1 (DSMZ) (mm³) Day 40, Median (25 mg/kg Q7Dx2 IV, SCID-beige mice, Day 40, group median of remaining animals): 7.70 mm³
- Xenograft AMO-1 (DSMZ) (mm³) Day 40, individual animal (25 mg/kg Q7Dx2 IV, SCID-beige mice, Day 40, tumor volume of single animals): 8 mm³
- Xenograft AMO-1 (DSMZ) Day 57, Mean (25 mg/kg Q7Dx2 IV, SCID-beige mice, Day 57, group mean of remaining animals): 13.23 mm³
- Xenograft AMO-1 (DSMZ) Day 57, Median (25 mg/kg Q7Dx2 IV, SCID-beige mice, Day 57, group median of remaining animals): 13.23 mm³
- Xenograft AMO-1 (DSMZ) (mm³) Day 36, Mean (25 mg/kg Q7Dx2 IV, group mean of remaining animals, SCID-beige mice, Day 36): 10.51 mm³
- Xenograft AMO-1 (DSMZ) (mm³) Day 32 Mean (25 mg/kg Q7Dx2 IV, group mean tumor volume, Day 32): 48.75 mm³
- Xenograft AMO-1 (DSMZ) (mm³) Day 36, Median (25 mg/kg Q7Dx2 IV, group median of remaining animals, SCID-beige mice, Day 36): 10.51 mm³
- Xenograft AMO-1 (DSMZ) (mm³) Day 32 Median (25 mg/kg Q7Dx2 IV, group median tumor volume, Day 32): 48.75 mm³
- Xenograft AMO-1 (DSMZ) (mm³) Day 32 (25 mg/kg Q7Dx2 IV, individual animal tumor volume, Day 32): 94 mm³ and 4 mm³
- Xenograft AMO-1 (DSMZ) (mm³) Day 36 (25 mg/kg Q7Dx2 IV, individual animal tumor volume, SCID-beige mice, Day 36): 11 mm³
